The values below come from article PMC9606187, “Dual HDAC/BRD4 Inhibitors Relieves Neuropathic Pain by Attenuating Inflammatory Response in Microglia After Spared Nerve Injury” (Neurotherapeutics, 2022).

Experiment [1] deals with model of neuropathic pain. Details: method as in PMID 33529752. The conditions noted are these: cited from earlier work.
The target in experiment [2] is T1, Recombinant Human Bromodomain containing protein 4, bromodomain 1 (BRD4-BD1) (Homo sapiens, UniProt O60885).
T1 construct: bromodomain 1 (aa 44–170); purchased Reaction Biology (RBC) RD-11–140; host or cells: E. coli
Nature of the experiment: AlphaScreen bromodomain binding assay (Reaction Biology), BRD4-1. The conditions noted are these: ligand Histone H4 peptide (1–21) K5/8/12/16Ac-Biotin; in comparison with (+)-JQ1; read-out: IC50 on BRD4-BD1. The method, then:
(§1) The reader assay is a binding assay using AlphaScreen technology […] assay and was performed by Reaction Biology (www.reactionbiology.com). The biotinylated peptide binding to the reader domain of His-tagged protein is monitored by the singlet oxygen transfer from the Streptavidin-coated donor beads to the AlphaScreen Ni-chelate acceptor beads.
(§2) Reaction buffer: 50 mM Hepes, pH7.5, 100 mM NaCl, 0.05% CHAPS, 0.1% BSA, and 1% DMSO (the final DMSO concentration may differ depending on compound stock and test concentrations).
(§3) Bromodomain: BRD4-1: RBC Cat# RD-11–140: Recombinant Human Bromodomain containing protein 4, bromodomain 1 (aa 44–170; Genbank Accession # NM_058243), expressed in E. coli with N-terminal His-tag. MW = 17.8 kDa; BRD4-2: RBC Cat# RD-11–141: Recombinant Human Bromodomain containing protein 4, bromodomain 2 (aa 349–460;Genbank Accession # NM_058243), expressed in E. coli with N-terminal His-tag. MW = 15.7 kDa. Ligand (C-term-Biotin): Histone H4 peptide (1–21) K5/8/12/16Ac-Biotin. Detection beads: PerkinElmer: Donor beads: Streptavidin-coated donor beads; Acceptor beads: AlphaScreen Ni acceptor beads.
Reaction procedure: • Deliver 2.5X BRD in wells of reaction plate except No BRD control wells. Add buffer instead. • Deliver compounds in 100% DMSO into the BRD mixture by Acoustic technology (Echo550; nanoliter range). […]
In general terms: Alpha assays give light when donor and acceptor beads are brought close together.

In experiment [3] the target is T2, Recombinant Human Bromodomain containing protein 4, bromodomain 2 (BRD4-BD2) (Homo sapiens, UniProt O60885).
T2 construct: purchased Reaction Biology (RBC) RD-11–141; host or cells: E. coli
Nature of the experiment: AlphaScreen bromodomain binding assay (Reaction Biology), BRD4-2. The method, then:
as §1, §2, §3
Reaction procedure: • Deliver 2.5X BRD in wells of reaction plate except No BRD control wells. Add buffer instead. • Deliver compounds in 100% DMSO into the BRD mixture by Acoustic technology (Echo550; nanoliter range). Spin down and pre-incubation for 30 min. • Deliver 5X Ligand. Spin and shake. • Incubate for 30 min at room temperature with gentle shaking. • Deliver 5X donor beads. Spin and shake. • Deliver 5X acceptor beads. Spin and shake. Then gentle shaking in the dark for 60 min. • Alpha measurement (Ex/Em = 680/520–620 nm) in Enspire.

Another experiment addresses T3, HDAC1 (Homo sapiens, UniProt Q13547).
T3 construct: endogenous in cells; host or cells: HCT-116
In words: HDAC1 immunoprecipitation & activity assay on treated HCT-116 cells. Type of experiment: cell-based. The conditions noted are these: HCT-116 cells treated at 10 µM for 12 h; in comparison with SAHA. The method, then:
HDAC assay: To test the inhibition activity of compounds, the HDAC1 immunoprecipitation (IP) & Activity Assay Kit (Catalog # K342-25; Biovision) was used under the protocol provided by the kit. HCT-116 cell lines were plated in 6 wells and treated with the investigated compounds at 10 µM for 12 h. After incubation, the media was removed, and the cells were washed with PBS (EuroClone) solution (2X). Then, 200 µl/well of lysis buffer with protease inhibitor was added and the cells were scraped and incubated in ice for 30 min. After centrifugation at 10,000 g for 10 min at 4 °C, the supernatant was collected. One hundred micrograms of each extract was incubated with 6 µl of Rabbit HDAC1 antibody and Rabbit IgG and the volume was reached to 500 µl with PBS with protease inhibitors. After incubation at 4 °C overnight a rotary mixer, 25 µl of the protein-A/G bead slurry, previously washed with PBS (2X), was added to the samples and incubated for 1 h at 4 °C. The beads were recovered after 3 washes with 1 ml PBS, by centrifuging at 14,000 g for ~ 10 s and used for HDAC assay.
HDAC assay preparation: For each reaction, 168 µl reaction mix containing HDAC assay buffer and HDAC substrate was prepared, added to the sample and to background control tube, and incubated at 37 °C for 2 h. SAHA was used as a positive control. […] The fluorescence was read at Ex/Em = 380/500 nm with Tecan M1000 plate reader.

The subject of another experiment is naïve mice. In words: Hot plate test, acute thermal pain in naïve mice. Type of experiment: in vivo. The conditions noted are these: 5 to 500 µM i.n. An excerpt: Mice were randomly assigned to each treatment group. To evaluate the pharmacological profile of SUM35 (N-hydroxy-6-(1-methyl-6-phenyl-4H-benzo[f][1,2,4]triazolo[4,3-a][1,4]diazepin-8-yl)hex-5-ynamide), SUM52 ((S)-N-hydroxy-7-(2-(1-methyl-6-phenyl-4H-benzo[f][1,2,4]triazolo[4,3-a][1,4]diazepin-4-yl)acetamido)heptanamide) (Fig. 1F), synthesized in the laboratory of Prof. Maria Novella Romanelli, iBET762 (molibresib; (4S)-6-(4-Chlorophenyl)-N-ethyl-8-methoxy-1-methyl-4H-[1,2,4]triazolo[4,3,a][1,4] benzodiazepine-4-acetamide, and SAHA (vorinostat; suberoylanilide hydroxamic acid) (Sigma-Aldrich, Italy) were administered 15 min before the tests. Drugs were dissolved in 5% DMSO. Drug concentrations were prepared in such a way that the necessary dose could be administered in a volume of 10 µl per mouse by intranasal (i.n.) administration. The experimental protocol to test the effect of treatments on behavioral and in vitro tests included 3 control groups: untreated, vehicle (5% DMSO), and saline. A representative figure of the experimental protocol in naïve (C) and SNI (F) mice has been inserted in Supplementary Fig. 1.
For i.n. administration, mice were slightly anesthetized by 2% isoflurane inhalation and placed in a supine position. A 5 μl aliquot of solution (treatments or vehicle) was slowly dropped alternatively to each nostril with a micropipette tip.
Animals were habituated to the testing environment daily for at least 2 days before baseline testing. To evaluate onset and progression of pain hypersensitivity, neuropathic mice were monitored by measuring nociceptive responses every 30 min for 3 h before surgery or 3, 7, 10, and 14 days after nerve surgery. Experiments were performed on post-surgery day 7 and 14 when the pain hypersensitivity was well established. Each mouse served as its own control, the responses being measured both before and after surgery. All testing was performed with a blind procedure.

Experiment [4] deals with SNI mice. Nature of the experiment: Hargreaves' plantar test, thermal allodynia in SNI mice. Type of experiment: in vivo.
Protocol: (§4) For i.n. administration, mice were slightly anesthetized by 2% isoflurane inhalation and placed in a supine position [30]. A 5 μl aliquot of solution (treatments or vehicle) was slowly dropped alternatively to each nostril with a micropipette tip.
Behavioral testing was performed before surgery to establish a baseline for comparison with post-surgical values.
Thermal nociceptive threshold was measured using Hargreaves’ device, as described [33]. Nociceptive response for thermal sensitivity was expressed as thermal paw withdrawal latency in seconds. All determinations were averaged for each animal.
Experiment [5] deals with SNI mice. In words: Mechanical allodynia (Dynamic Plantar Aesthesiometer) in SNI mice. It is filed as in vivo.
Protocol: Mice were randomly assigned to each treatment group. […] Maria Novella Romanelli, iBET762 (molibresib; (4S)-6-(4-Chlorophenyl)-N-ethyl-8-methoxy-1-methyl-4H-[1,2,4]triazolo[4,3,a][1,4] benzodiazepine-4-acetamide, and SAHA (vorinostat; suberoylanilide hydroxamic acid) (Sigma-Aldrich, Italy) were administered 15 min before the tests. Drugs were dissolved in 5% DMSO. Drug concentrations were prepared in such a way that the necessary dose could be administered in a volume of 10 µl per mouse by intranasal (i.n.) administration. The experimental protocol to test the effect of treatments on behavioral and in vitro tests included 3 control groups: untreated, vehicle (5% DMSO), and saline.
as §4
Behavioral testing was performed before surgery to establish a baseline for comparison with post-surgical values. Mono-neuropathy was induced by spared nerve injury and this model of pain in mice has been in use for several years [31]. The SNI procedure was performed as previously described [31].
Mechanical allodynia was measured by using Dynamic Plantar Aesthesiometer (Ugo Basile, Bologna, Italy), as described [32]. Nociceptive response for mechanical sensitivity was expressed as mechanical paw withdrawal threshold (PWT) in grams. PWT was quantified by an observer blinded to the treatment.
Setting [6] is: time-course comparison, combination i-BET762 10 µg, SAHA 3 µg.

The structures appear in SMILES notation. pIC50: −log10 of the molar value.

T3 sequence (Q13547 whole entry): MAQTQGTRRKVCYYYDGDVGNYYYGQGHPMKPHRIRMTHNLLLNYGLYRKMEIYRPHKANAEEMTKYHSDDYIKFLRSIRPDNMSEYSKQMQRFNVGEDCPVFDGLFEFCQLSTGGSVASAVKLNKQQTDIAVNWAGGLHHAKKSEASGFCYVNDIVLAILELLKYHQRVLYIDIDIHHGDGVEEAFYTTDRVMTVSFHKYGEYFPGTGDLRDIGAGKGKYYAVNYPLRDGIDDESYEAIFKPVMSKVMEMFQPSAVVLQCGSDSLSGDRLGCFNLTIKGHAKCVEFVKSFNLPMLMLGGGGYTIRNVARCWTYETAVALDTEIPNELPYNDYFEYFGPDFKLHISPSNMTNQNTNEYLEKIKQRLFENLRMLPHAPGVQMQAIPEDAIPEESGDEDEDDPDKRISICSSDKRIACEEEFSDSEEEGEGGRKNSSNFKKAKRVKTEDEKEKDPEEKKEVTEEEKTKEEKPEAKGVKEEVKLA

Regarding `CCNC(=O)C[C@@H]1N=C(c2ccc(Cl)cc2)c2cc(OC)ccc2-n2c(C)nnc21` [iBET762, (4S)-6-(4-Chlorophenyl)-N-ethyl-8-methoxy-1-methyl-4H-[1,2,4]triazolo[4,3,a][1,4] benzodiazepine-4-acetamide], the “time of peak of analgesic activity after administration” value in experiment [1] is on record as 90 min.

For `Cc1nnc2n1-c1ccc(C#CCCCC(=O)NO)cc1C(c1ccccc1)=NC2` [SUM35, N-hydroxy-6-(1-methyl-6-phenyl-4H-benzo[f][1,2,4]triazolo[4,3-a][1,4]diazepin-8-yl)hex-5-ynamide], the negative logarithm of the IC50 (pIC50) – broadly, the negative decadic logarithm of the IC50, by convention in mol/L – in experiment [2] is 5.76; in experiment [3] (ligand Histone H4 peptide (1–21) K5/8/12/16Ac-Biotin, in comparison with (+)-JQ1, read-out: IC50 on BRD4-BD2) it was 6.93. Further, in experiment [3] (BRD4-BD1 vs BRD4-BD2), the “preference between BRD4-BD1 and BRD4-BD2 domains” value is reported as “preferential interaction for BRD4-BD2”. In addition, the “inhibition of HDAC1 enzymatic activity” value at HDAC1 was “Partial inhibition”. Further, in the experiment on naïve mice, the “thermal antinociceptive effect (hot plate), whole dose range” value is recorded as “did not produce any significant increase of the thermal pain threshold”. For the same compound, the entries for the “thermal antiallodynic activity, ipsilateral side” value in the experiment on SNI mice [4] (100 µM i.n.) and in the experiment with SNI mice [4] (200 µM i.n.) were “reaching the statistical significance” and “did not produce any significant increase of pain threshold”, respectively. For the same compound, the “thermal antiallodynic efficacy compared with SAHA + iBET762 combination” value in the experiment with SNI mice [4] (setting [6]) is reported as “lower antiallodynic activity”. Moreover, the “mechanical antiallodynic activity, ipsilateral side” value in the experiment on SNI mice [5] (100 µM i.n.) is “reaching the statistical significance”; with SNI mice [5] (200 µM i.n.) it was “did not produce any significant increase of pain threshold”. In addition, in the experiment on SNI mice [5] (setting [6]), the “mechanical antiallodynic efficacy compared with SAHA + iBET762 combination” value was “lower antiallodynic activity”.

Regarding `O=C(CCCCCCC(=O)Nc1ccccc1)NO` [SAHA, suberoylanilide hydroxamic acid], the “time of peak of analgesic activity after administration” value in experiment [1] was 60 min.
